Laboratory results taken from US9175011B2, “Morpholino substituted urea or carbamate derivatives as MTOR inhibitors” (CELLZOME LIMITED, priority 2011, dated 2015).

Experiments:
PI3K alpha (PI3Kα) = molecular target: T1, PI3K alpha (PI3Kα) (Homo sapiens, UniProt P42336); test: kinobeads assay, PI3K alpha; format: binding; details: Jurkat cell lysate, read-out: Inhibition values (IC50) PI3Ka
T1 construct: Jurkat cells were homogenized in a Potter S homogenizer in lysis buffer; endogenous in cells; host or cells: Jurkat, clone E6-1 (ATCC TIB-152) lysate
Description: (§1) The compounds of the present invention as described were tested in the mTOR kinobeads assay as described below. Briefly, test compounds (at various concentrations) and the affinity matrix (1:1 mixture of beads with immobilized phenylthiazole ligand 1 and beads with immobilized phenylmorpholin-chromen ligand; WO 2009/098021) were added to cell lysate aliquots and allowed to bind to the proteins in the lysate sample. After the incubation time the beads with captured proteins were separated from the lysate. Bound proteins were then eluted and the presence of mTOR, PI3K alpha (PI3Kα), PI3K beta (PI3Kb), PI3K gamma (PI3Kg), PI3K delta (PI3Kd) and DNA-dependent protein kinase (DNA-PK) was detected and quantified using a specific antibody in a dot blot procedure and the Odyssey infrared detection system. Dose response curves for individual kinases were generated and IC50 values calculated. Kinobeads assays for PI3 kinases (WO-A 2008/015013) and for kinase selectivity profiling (WO 2009/098021) have been previously described.
(§2) The affinity matrix (beads with immobilized phenylmorpholin-chromen ligand) was washed three times with 15 ml of 1×DP buffer containing 0.2% NP40 (IGEPAL® CA-630, Sigma, #13021) and then resuspended in 5.5 ml of 1×DP buffer containing 0.2% NP40 (10% beads slurry).
(§3) 5×DP buffer: 250 mM Tris-HCl pH 7.4, 25% Glycerol, 7.5 mM MgCl2, 750 mM NaCl, 5 mM Na3VO4, filter the 5×-lysis buffer through 0.22 μm filter and store in aliquots at −80° C. The 5×DP buffer is diluted to 1×DP buffer containing 1 mM DTT and 25 mM NaF.
(§4) Stock solutions of test compounds were prepared in DMSO. In a 96 well plate 30 μl solution of diluted test compounds at 5 mM in DMSO were prepared. Starting with this solution a 1:3 dilution series (9 steps) was prepared. For control experiments (no test compound) a buffer containing 2% DMSO was used. Compound PI-103 served as a positive control (Calbiochem catalogue number 528100).
(§5) Jurkat cells (ATCC catalogue number TIB-152 Jurkat, clone E6-1) were grown in 1 liter Spinner flasks (Integra Biosciences, #182101) in suspension in RPMI 1640 medium (Invitrogen, #21875-034) supplemented with 10% Fetal Bovine Serum (Invitrogen) at a density between 0.15×10^6 and 1.2×10^6 cells/ml. Cells were harvested by centrifugation, washed once with 1×PBS buffer (Invitrogen, #14190-094) and cell pellets were frozen in liquid nitrogen and subsequently stored at −80° C.
(§6) Jurkat cells were homogenized in a Potter S homogenizer in lysis buffer: 50 mM Tris-HCl, 0.8% NP40, 5% glycerol, 150 mM NaCl, 1.5 mM MgCl2, 25 mM NaF, 1 mM sodium vanadate, 1 mM DTT, pH 7.5. One complete EDTA-free tablet (protease inhibitor cocktail, Roche Diagnostics, 1873580) per 25 ml buffer was added. The material was dounced 10 times using a mechanized POTTER S, transferred to 50 ml falcon tubes, incubated for 30 minutes on ice and spun down for 10 min at 20,000 g at 4° C. (10,000 rpm in Sorvall SLA600, precooled). The supernatant was transferred to an ultracentrifuge (UZ)-polycarbonate tube (Beckmann, 355654) and spun for 1 hour at 100.000 g at 4° C. (33.500 rpm in Ti50.2, precooled). The supernatant was transferred again to a fresh 50 ml falcon tube, the protein concentration was determined by a Bradford assay (BioRad) and samples containing 50 mg of protein per aliquot were prepared. The samples were immediately used for experiments or frozen in liquid nitrogen and stored frozen at −80° C.
(§7) Jurkat cell lysate (approximately 50 mg protein per plate) was thawed in a water bath at room temperature and then kept on ice. To the thawed cell lysate 1×DP 0.8% NP40 buffer containing protease inhibitors (1 tablet for 25 ml buffer; EDTA-free protease inhibitor cocktail; Roche Diagnostics 1873580) was added in order to reach a final protein concentration of 5 mg/ml total protein. The diluted cell lysate was stored on ice. […]

[1] = molecular target: T2, DNA-dependent protein kinase (DNA-PK) (Homo sapiens, UniProt P78527); test: kinobeads assay, DNA-PK; format: binding; details: Jurkat cell lysate, read-out: Inhibition values (IC50) DNA-PK
T2 construct: Jurkat cells were homogenized in a Potter S homogenizer in lysis buffer; endogenous in cells; host or cells: Jurkat, clone E6-1 (ATCC TIB-152) lysate
T2 sequence (P78527 whole entry): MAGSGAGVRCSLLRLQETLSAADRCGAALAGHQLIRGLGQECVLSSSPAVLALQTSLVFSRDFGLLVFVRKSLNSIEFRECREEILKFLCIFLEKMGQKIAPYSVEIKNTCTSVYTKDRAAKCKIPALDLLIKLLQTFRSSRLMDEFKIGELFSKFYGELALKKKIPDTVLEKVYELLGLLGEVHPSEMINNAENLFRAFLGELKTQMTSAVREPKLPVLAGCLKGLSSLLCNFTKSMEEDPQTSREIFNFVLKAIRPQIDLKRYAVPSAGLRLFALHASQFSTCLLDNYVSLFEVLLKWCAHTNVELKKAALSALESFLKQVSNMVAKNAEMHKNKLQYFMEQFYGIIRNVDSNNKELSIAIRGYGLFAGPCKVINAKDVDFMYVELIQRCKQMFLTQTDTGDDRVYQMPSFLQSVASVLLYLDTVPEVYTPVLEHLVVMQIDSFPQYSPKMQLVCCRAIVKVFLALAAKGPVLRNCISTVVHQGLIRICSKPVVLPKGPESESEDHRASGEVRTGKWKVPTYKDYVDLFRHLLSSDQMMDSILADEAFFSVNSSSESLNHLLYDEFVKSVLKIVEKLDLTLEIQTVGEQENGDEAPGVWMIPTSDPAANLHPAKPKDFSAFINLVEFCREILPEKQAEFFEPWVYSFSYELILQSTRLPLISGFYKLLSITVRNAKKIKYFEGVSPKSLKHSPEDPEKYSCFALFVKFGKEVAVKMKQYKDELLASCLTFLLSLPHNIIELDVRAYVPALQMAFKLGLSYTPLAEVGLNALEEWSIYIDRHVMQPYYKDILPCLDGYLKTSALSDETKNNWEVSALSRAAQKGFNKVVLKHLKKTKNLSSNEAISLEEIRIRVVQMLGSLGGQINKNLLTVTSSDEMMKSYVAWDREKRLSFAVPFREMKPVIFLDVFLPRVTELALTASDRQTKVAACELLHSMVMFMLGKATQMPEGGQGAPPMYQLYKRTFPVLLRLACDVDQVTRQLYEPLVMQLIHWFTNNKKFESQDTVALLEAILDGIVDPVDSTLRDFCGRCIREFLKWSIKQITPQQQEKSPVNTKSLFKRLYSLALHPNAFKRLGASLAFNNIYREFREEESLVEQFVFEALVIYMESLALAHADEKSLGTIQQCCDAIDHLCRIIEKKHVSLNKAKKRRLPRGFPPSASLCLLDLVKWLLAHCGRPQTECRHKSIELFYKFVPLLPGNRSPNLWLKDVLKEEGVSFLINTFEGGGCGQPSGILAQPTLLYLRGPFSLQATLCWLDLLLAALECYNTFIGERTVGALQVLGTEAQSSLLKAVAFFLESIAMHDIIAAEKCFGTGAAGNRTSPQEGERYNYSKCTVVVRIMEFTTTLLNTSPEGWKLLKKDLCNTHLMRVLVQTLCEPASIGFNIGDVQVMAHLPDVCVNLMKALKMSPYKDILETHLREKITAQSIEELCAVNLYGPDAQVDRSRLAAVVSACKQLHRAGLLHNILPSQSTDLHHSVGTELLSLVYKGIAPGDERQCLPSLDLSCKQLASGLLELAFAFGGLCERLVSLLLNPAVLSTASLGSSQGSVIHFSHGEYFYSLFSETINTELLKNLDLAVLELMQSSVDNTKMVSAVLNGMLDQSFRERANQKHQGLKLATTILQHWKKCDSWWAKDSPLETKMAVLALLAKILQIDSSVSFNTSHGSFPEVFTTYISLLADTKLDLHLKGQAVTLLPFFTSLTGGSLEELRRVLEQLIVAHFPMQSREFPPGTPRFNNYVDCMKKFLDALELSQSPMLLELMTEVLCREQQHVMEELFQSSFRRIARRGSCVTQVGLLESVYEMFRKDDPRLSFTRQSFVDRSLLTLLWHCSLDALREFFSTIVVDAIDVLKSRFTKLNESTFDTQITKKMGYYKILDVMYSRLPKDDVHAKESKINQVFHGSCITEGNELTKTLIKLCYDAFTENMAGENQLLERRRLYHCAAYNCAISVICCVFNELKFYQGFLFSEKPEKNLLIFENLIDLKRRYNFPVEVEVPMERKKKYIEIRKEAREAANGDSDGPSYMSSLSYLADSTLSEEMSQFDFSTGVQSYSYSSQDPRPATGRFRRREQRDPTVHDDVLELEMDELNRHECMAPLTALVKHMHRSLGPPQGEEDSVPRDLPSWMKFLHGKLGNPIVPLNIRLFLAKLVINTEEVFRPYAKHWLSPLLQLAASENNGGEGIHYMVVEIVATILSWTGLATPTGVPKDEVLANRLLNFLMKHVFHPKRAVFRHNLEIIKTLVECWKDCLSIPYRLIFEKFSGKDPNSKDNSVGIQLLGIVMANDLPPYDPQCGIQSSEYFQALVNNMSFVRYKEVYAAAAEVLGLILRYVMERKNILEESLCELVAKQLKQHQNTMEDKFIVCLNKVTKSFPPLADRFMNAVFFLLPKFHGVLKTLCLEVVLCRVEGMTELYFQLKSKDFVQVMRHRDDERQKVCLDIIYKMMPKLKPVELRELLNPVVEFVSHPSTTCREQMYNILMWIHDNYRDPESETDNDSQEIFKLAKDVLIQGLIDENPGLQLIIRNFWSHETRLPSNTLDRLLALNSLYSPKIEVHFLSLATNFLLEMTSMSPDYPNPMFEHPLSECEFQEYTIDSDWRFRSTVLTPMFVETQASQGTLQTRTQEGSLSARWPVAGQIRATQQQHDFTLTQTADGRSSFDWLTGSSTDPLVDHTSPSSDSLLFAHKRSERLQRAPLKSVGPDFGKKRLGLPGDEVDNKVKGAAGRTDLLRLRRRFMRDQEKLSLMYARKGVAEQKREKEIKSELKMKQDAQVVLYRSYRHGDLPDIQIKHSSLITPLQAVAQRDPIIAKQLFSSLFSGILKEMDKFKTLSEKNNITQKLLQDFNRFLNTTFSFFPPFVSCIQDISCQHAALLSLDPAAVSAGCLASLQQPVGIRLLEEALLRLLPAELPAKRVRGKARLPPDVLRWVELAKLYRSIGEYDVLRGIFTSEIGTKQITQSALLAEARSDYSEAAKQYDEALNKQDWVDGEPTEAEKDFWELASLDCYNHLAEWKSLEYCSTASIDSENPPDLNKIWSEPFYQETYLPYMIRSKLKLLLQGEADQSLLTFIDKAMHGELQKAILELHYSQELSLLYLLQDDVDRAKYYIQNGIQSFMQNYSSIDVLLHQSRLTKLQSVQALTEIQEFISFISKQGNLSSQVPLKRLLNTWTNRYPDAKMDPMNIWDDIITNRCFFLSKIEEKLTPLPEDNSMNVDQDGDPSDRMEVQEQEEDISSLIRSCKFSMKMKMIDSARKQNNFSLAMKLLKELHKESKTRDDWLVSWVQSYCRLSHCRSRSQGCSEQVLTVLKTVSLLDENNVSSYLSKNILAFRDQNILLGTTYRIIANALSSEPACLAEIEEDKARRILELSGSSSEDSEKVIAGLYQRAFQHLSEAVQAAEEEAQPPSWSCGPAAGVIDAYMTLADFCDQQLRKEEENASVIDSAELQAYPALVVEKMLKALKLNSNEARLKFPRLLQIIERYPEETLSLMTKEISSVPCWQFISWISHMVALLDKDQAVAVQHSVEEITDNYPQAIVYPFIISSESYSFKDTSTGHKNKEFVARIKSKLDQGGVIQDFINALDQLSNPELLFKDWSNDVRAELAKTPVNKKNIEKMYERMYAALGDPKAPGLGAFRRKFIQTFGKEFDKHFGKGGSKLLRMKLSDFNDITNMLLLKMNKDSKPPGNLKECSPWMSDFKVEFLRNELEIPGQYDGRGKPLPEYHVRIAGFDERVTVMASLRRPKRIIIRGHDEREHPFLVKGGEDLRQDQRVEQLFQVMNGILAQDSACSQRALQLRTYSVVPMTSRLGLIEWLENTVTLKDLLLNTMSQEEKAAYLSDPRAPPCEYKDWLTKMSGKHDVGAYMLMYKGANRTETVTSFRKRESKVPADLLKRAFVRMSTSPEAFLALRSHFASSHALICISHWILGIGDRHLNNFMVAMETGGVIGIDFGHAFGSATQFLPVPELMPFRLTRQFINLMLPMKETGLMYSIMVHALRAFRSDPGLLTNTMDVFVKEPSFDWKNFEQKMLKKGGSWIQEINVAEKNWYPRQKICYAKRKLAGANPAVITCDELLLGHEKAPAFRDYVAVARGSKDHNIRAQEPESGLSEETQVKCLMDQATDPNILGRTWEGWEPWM
Description: as §1, §2, §3, §4, §5, §6, §7

[2] = test system: S6RP serine-240/244 phosphorylation; test: In vitro phospho-S6 cellular assay (HEK293T/17); format: cell-based; details: Homo sapiens; HEK293T/17 cells, 2 hours, pS6RP Ser240/244; read-out: Inhibition values (IC50) pS6
Description: Activation of mTOR signaling results in phosphorylation of several downstream targets. In cells, mTOR exists in two different protein complexes. The mTOR Complex-1 (mTORC1) phosphorylates and activates S6 Kinase 1 (S6K1) and S6 Kinase 2 (S6K2) (also known as p70S6K) which then phosphorylate S6 Ribosomal Protein (S6RP) (also known as RPS6)3. S6RP is phosphorylated on serine 235, senile 236, serine 240 and serine 244 by both pS6K1 and pS6K2. The mTOR Complex-2 (mTORC2) phosphorylates AKT on serine 473 which activates the AKT signaling pathway.
The assay measures a test compound's inhibition of S6RP serine-240/244 phosphorylation and inhibition of Akt serine-473 phosphorylation in human embryonic kidney derived HEK293T/17 cells (ATCC CRL-11268).
The HEK293T/17 cell line is maintained in DMEM media (Invitrogen catalogue number 41965-039) supplemented with 10% FCS at 37° C. in a 5% CO2 humidified incubator. Cells are seeded in 96-well plates at 40,000 cells/well (pS6RP S240/244 assay) or 80,000 cells/well (pAkt 5473 assay) in 90 μl growth media (DMEM, 2% FCS). Plates are incubated for 1 hour in a humidified incubator to allow the cells to adhere. Cells are treated with 8 concentrations of test compounds or DMSO alone for controls (final DMSO concentration 0.1%) and incubated at 37° C. for 2 hours. Then 20 μl of 5× concentrated lysis buffer (750 mM NaCl, 100 mM Tris pH7.4, 5 mM ADTA, 5 mM EGTA, 5% Triton X-100) is added, plates are sealed and incubated for 15 minutes at 4° C. with gentle shaking After cell lysis, 25 μl cell lysate is transferred to a MesoScale plate coated with an antibody to pS6RP Ser240/244 (MesoScale Discovery K150DGD-3) or an antibody to pAkt Ser 473 (MesoScale Discovery K151DGD-3). Plates have been blocked before by incubation with 150 μl MesoScale Discovery Blocking Solution-A for 1 hour at room temperature followed by washing with 150 μl 1×Tris wash buffer per well. After the transfer of the cell lysate to the MSD plate, the pS6RP (or pAkt) protein is captured on the coated antibody by incubation at room temperature for 1 hour with gentle shaking. After the capture step the plate is washed three times with 150 μl of 1× Tris wash buffer per well. Then 25 μl detection antibody conjugated with a Sulfo-Tag is added and incubated for 1 hour at room temperature with gentle shaking. Subsequently the antibody solution is removed and the plate is washed 3 times with 150 μl 1×Tris wash buffer per well and 150 μl Read buffer is added. The plates are analysed on a MSD 2400 Plate Reader (MesoScale Discovery). Data analysis is performed using nonlinear regression for a sigmoidal dose-response with a variable slope.

mTOR = molecular target: T3, mTOR (Homo sapiens, UniProt P42345); test: mTOR kinobeads assay (Jurkat cell lysate, dot blot detection); format: binding; details: read-out: Inhibition values (IC50) mTor
T3 construct: Jurkat cells were homogenized in a Potter S homogenizer in lysis buffer; endogenous in cells; host or cells: Jurkat, clone E6-1 (ATCC TIB-152) lysate
Description: as §1, §2, §3, §4, §5, §6, §7

PI3K beta (PI3Kb) = molecular target: T4, PI3K beta (PI3Kb) (Homo sapiens, UniProt P42338); test: kinobeads assay, PI3K beta; format: binding; details: Jurkat cell lysate, read-out: Inhibition values (IC50) PI3Kb
T4 construct: Jurkat cells were homogenized in a Potter S homogenizer in lysis buffer; endogenous in cells; host or cells: Jurkat, clone E6-1 (ATCC TIB-152) lysate
Description: as §1, §2, §3, §4, §5, §6, §7

PI3K delta (PI3Kd) = molecular target: T5, PI3K delta (PI3Kd) (Homo sapiens, UniProt O00329); test: kinobeads assay, PI3K delta; format: binding; details: Jurkat cell lysate, read-out: Inhibition values (IC50) PI3Kd
T5 construct: Jurkat cells were homogenized in a Potter S homogenizer in lysis buffer; endogenous in cells; host or cells: Jurkat, clone E6-1 (ATCC TIB-152) lysate
Description: as §1, §2, §3, §4, §5, §6, §7

PI3K gamma (PI3Kg) = molecular target: T6, PI3K gamma (PI3Kg) (Homo sapiens, UniProt P48736); test: kinobeads assay, PI3K gamma; format: binding; details: Jurkat cell lysate, read-out: Inhibition values (IC50) PI3Kg
T6 construct: Jurkat cells were homogenized in a Potter S homogenizer in lysis buffer; endogenous in cells; host or cells: Jurkat, clone E6-1 (ATCC TIB-152) lysate
Description: as §1, §2, §3, §4, §5, §6, §7

| SMILES | IC50 (PI3K alpha (PI3Kα)) [µM] | IC50 [1] [µM] | IC50 [2] [µM] | IC50 (mTOR) [µM] | IC50 (PI3K beta (PI3Kb)) [µM] | IC50 (PI3K delta (PI3Kd)) [µM] | IC50 (PI3K gamma (PI3Kg)) [µM] |
| --- | --- | --- | --- | --- | --- | --- | --- |
| CS(=O)(=O)c1ccccc1-c1nc(-c2ccc(NC(=O)NC3CC3)cc2)nc(N2CCOCC2CO)n1 (centres unmarked) [Example 23, 1-cyclopropyl-3-(4-(4-(3-(hydroxymethyl)morpholino)-6-(2-(methylsulfonyl)phenyl)-1,3,5-triazin-2-yl)phenyl)urea] | > 10 | > 10 |  | 1 to 10 | > 10 | > 10 | > 10 |
| C[C@H]1COCCN1c1nc(-c2ccc(NC(=O)NC3CCCCC3)cc2)nc(-c2ccccc2S(C)(=O)=O)n1 [Example 28, (S)-1-cyclohexyl-3-(4-(4-(3-methylmorpholino)-6-(2-(methylsulfonyl)phenyl)-1,3,5-triazin-2-yl)phenyl)urea] | > 10 | > 10 |  | 1 to 10 | > 10 | > 10 | > 10 |
| C[C@H]1COCCN1c1nc(-c2ccc(NC(=O)NCCC(N)C(F)(F)F)cc2)nc(-c2ccccc2S(C)(=O)=O)n1 (stereo partly drawn) [Example 37, 1-(3-amino-4,4,4-trifluorobutyl)-3-(4-(4-((S)-3-methylmorpholino)-6-(2-(methylsulfonyl)phenyl)-1,3,5-triazin-2-yl)phenyl)urea] | > 10 |  |  | 1 to 10 |  |  |  |
| CS(=O)(=O)c1ccc(F)cc1-c1nc(-c2ccc(NC(=O)NC3CC3)cc2)nc(N2CC3CCC(C2)O3)n1 [Example 39, 1-(4-(4-(8-oxa-3-azabicyclo[3.2.1]octan-3-yl)-6-(5-fluoro-2-(methylsulfonyl)phenyl)-1,3,5-triazin-2-yl)phenyl)-3-cyclopropylurea] | > 10 |  | 0.1 to 1 | 1 to 10 |  |  |  |
| CNC(=O)Nc1ccc(-c2nc(-c3cccnc3S(C)(=O)=O)nc(N3CCOC[C@@H]3C)n2)cc1 [Example 41, (S)-1-methyl-3-(4-(4-(3-methylmorpholino)-6-(2-(methylsulfonyl)pyridin-3-yl)-1,3,5-triazin-2-yl)phenyl)urea] | 1 to 10 | > 10 | < 0.1 | < 0.1 |  |  |  |

Other lines, results leading:

| IC50 (PI3K alpha (PI3Kα)) [µM] | IC50 [1] [µM] | IC50 [2] [µM] | IC50 (mTOR) [µM] | IC50 (PI3K beta (PI3Kb)) [µM] | IC50 (PI3K delta (PI3Kd)) [µM] | IC50 (PI3K gamma (PI3Kg)) [µM] | SMILES |
| --- | --- | --- | --- | --- | --- | --- | --- |
| > 10 | > 10 | < 0.1 | 0.1 to 1 |  |  |  | CNC(=O)Nc1ccc(-c2nc(-c3cc(F)ccc3S(C)(=O)=O)nc(N3CCOC[C@@H]3C)n2)cc1 [Example 2, (S)-1-(4-(4-(5-fluoro-2-(methylsulfonyl)phenyl)-6-(3-methylmorpholino)-1,3,5-triazin-2-yl)phenyl)-3-methylurea] |
| > 10 | > 10 |  | 1 to 10 | > 10 | > 10 | > 10 | C[C@H]1COCCN1c1nc(-c2ccc(NC(=O)NCC(C)(C)C)cc2)nc(-c2ccccc2S(C)(=O)=O)n1 [Example 30, (S)-1-(4-(4-(3-methylmorpholino)-6-(2-(methylsulfonyl)phenyl)-1,3,5-triazin-2-yl)phenyl)-3-neopentylurea] |
| 1 to 10 | > 10 | < 0.1 | < 0.1 |  |  |  | CCNC(=O)Nc1ccc(-c2nc(-c3cccnc3S(C)(=O)=O)nc(N3CCOC[C@@H]3C)n2)cc1 [Example 40, (S)-1-ethyl-3-(4-(4-(3-methylmorpholino)-6-(2-(methylsulfonyl)pyridin-3-yl)-1,3,5-triazin-2-yl)phenyl)ure] |
| > 10 | > 10 | < 0.1 | 0.1 to 1 |  |  |  | CCNC(=O)Nc1ccc(-c2nc(-c3cc(F)ccc3S(C)(=O)=O)nc(N3CCOC[C@@H]3C)n2)cc1 [Example 42, (S)-1-ethyl-3-(4-(4-(5-fluoro-2-(methylsulfonyl)phenyl)-6-(3-methylmorpholino)-1,3,5-triazin-2-yl)phenyl)urea] |
| > 10 | > 10 | < 0.1 | 0.1 to 1 |  |  |  | C[C@H]1COCCN1c1nc(-c2ccc(NC(=O)NCC(F)F)cc2)nc(-c2cc(F)ccc2S(C)(=O)=O)n1 [Example 43, (S)-1-(2,2-difluoroethyl)-3-(4-(4-(5-fluoro-2-(methylsulfonyl)phenyl)-6-(3-methylmorpholino)-1,3,5-triazin-2-yl)phenyl)urea] |
| > 10 | > 10 | < 0.1 | 0.1 to 1 |  |  |  | C[C@H]1COCCN1c1nc(-c2ccc(NC(=O)NCCF)cc2)nc(-c2cc(F)ccc2S(C)(=O)=O)n1 [Example 44, (S)-1-(4-(4-(5-fluoro-2-(methylsulfonyl)phenyl)-6-(3-methylmorpholino)-1,3,5-triazin-2-yl)phenyl)-3-(2-fluoroethyl)urea] |
